The values that follow come from BindingDB's records for doi:10.1021/jm9606507 (Warner-Lambert, 1997).

The experiment in a line: Inhibition of Endothelin A receptor mediated (ET-1) release of arachidonic acid from rabbit renal artery vascular smooth muscle cells.

Broadly, the IC50 is the midpoint of a concentration-inhibition curve. For `COc1ccc(C(=O)/C(Cc2cc(OC)c(OC)c(OC)c2)=C(\C(=O)O)c2ccc3c(c2)OCO3)cc1C` [Sodium; (Z)-2-benzo[1,3]dioxol-5-yl-4-(4-methoxy-3-methyl-phenyl)-4-oxo-3-(3,4,5-trimethoxy-benzyl)-but-2-enoate], 0.98 nM corresponded to half-maximal inhibition (IC50).
